Measurements published in PMC8179567, “Target-templated de novo design of macrocyclic D-/L-peptides: discovery of drug-like inhibitors of PD-1” (Chemical Science, 2021).
Square brackets hold non-standard residues; d marks the D form. Peptide text beside a SMILES is read from it.

Experiments:
[1] = target: T1, extracellular domain of human PD-1 (Homo sapiens, UniProt Q15116, C93S); assay: Surface plasmon resonance (SPR), PD-1 immobilised on CM5 chip; assay type: binding; conditions: analytes injected at 10, 100 and 1000 µM in PBS, 25 °C, PBS-T pH 7.4, reference channel subtracted; KD not calculable (fast kinetics, no saturation)
T1 construct: ectodomain of human PD-1 (aa 33- 150) was cloned into pET-24d; made in house
T1 sequence (Q15116 33-150 C93S limits assumed): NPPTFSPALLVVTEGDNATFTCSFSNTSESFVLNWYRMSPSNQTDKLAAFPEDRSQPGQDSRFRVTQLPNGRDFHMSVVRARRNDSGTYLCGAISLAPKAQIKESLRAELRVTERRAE
Excerpt: Seven de novo designed cyclic peptides were in total selected for experimental characterization (PD-i1-7). To this end, peptide chains were elongated on a Wang-linker modified polystyrene resin (anchoring through the Asp side-chain carboxylic acid). This chemical strategy enabled the head-to-tail cyclisation to be readily performed on-resin, and a final deprotection/cleavage step yielded the already cyclized final peptide (Scheme S1 ^†). To test for their bioactivity, the extracellular domain of human PD-1 was recombinantly expressed in E. coli and refolded from inclusion bodies. The purified protein was then immobilized by free amine coupling on a CM5 sensor chip surface, and surface plasmon resonance (SPR) measurements were performed. […] In particular, we selected microscale thermophoresis (MST) as it has been validated with this system[30] and allows the quantification of interactions in solution, which mimics physiological conditions. To this end, PD-1 was first fluorescently labelled and then titrated with increasing amounts of PD-i3 and PD-i6. […] Mutation of L-Trp, which serves as PD-1 anchor for the in silico design process, largely abolished binding to the target (Fig. S9A ^†). […]

[2] = target: T2, 15N-labelled PD-1 extracellular domain (Homo sapiens, UniProt Q15116, C93S); assay: 1H,15N HSQC NMR mapping of interaction site; assay type: binding; conditions: 15N-PD-1 60 µM, peptide 1 mM, 25 °C, pH 6.4; I/Io > 20% considered significant; residues adjacent to the CC′ loop
T2 construct: ectodomain of human PD-1 (aa 33- 150) was cloned into pET-24d; made in house
T2 sequence (Q15116 33-150 C93S limits assumed): as above
Description: To further elucidate the interaction site of PD-i3 and PD-i6, we expressed the extracellular domain of PD-1 uniformly labelled in ^15N and performed high-resolution NMR spectroscopy assays.
Microscale thermophoresis (MST)
MST was used to calculate the binding affinities in solution of PD-i3 and PD-i 6 for the extracellular domain of human PD-1. To this end, PD-1 was fluorescently labelled by reaction of the Lys side chains with Alexa-647-NHS (6 eq) for 3 h at 4 °C. The labelled protein was purified by size-exclusion chromatography and was diluted in PBS-T buffer (0.05% Tween 20, pH 7.4) to a final concentration of 10 nM. […]
#BE0193) as positive controls (Figure S). […] A reproducible and negative thermophoresis response was observed, which was baseline-corrected and normalized (ΔFnorm [‰]).The curves were analyzed using a standard Langmuir binding model, from which dissociations constants (K D) were determined. […]
ITC experiments were performed at 25 °C using a low-volume nano ITC calorimeter (TA instruments). […] Binding isotherms were analysed using the software provided by TA instruments, assuming a single binding site for the independent domains. […]
1H,15N HSQC spectra were recorded at 25 °C on a Bruker 600 MHz spectrometer equipped with a cryoprobe. […]
To assess the solution structures of PD-i3 and PD-i6, NMR spectra were recorded at 5 °C on a Bruker B800 MHz spectrometer equipped with a cryoprobe. […]

Row | SMILES | SPR response on PD-1-functionalised channel [1] | Changes in PD-1 HSQC signal intensity on peptide addition [2]
1 | CC(C)[C@@H]1NC(=O)[C@@H](Cc2c[nH]c3ccccc23)NC(=O)[C@H](Cc2c[nH]c3ccccc23)NC(=O)[C@H](CC(=O)O)NC(=O)[C@@H](CCCCN)NC(=O)[C@H](C)NC(=O)[C@H](CCC(=O)O)NC(=O)[C@H]2CCCN2C1=O [PD-i6] (cyclo(A[dK]DW[dW]V[dP]E)) | distinct concentration-dependent SPR responses | significant changes in signal intensity
2 | CSCC[C@@H]1NC(=O)[C@H]([C@@H](C)O)NC(=O)[C@H](CC(=O)O)NC(=O)[C@H]2CCCN2C(=O)[C@H](Cc2ccc(O)cc2)NC(=O)[C@H](CCCNC(=N)N)NC(=O)[C@@H](CCCNC(=N)N)NC(=O)[C@@H](CCC(=O)O)NC(=O)[C@H](CC(C)C)NC(=O)[C@H](Cc2ccc(O)cc2)NC1=O [PD-i3] (cyclo(DTMYL[dE][dR]RY[dP])) | distinct concentration-dependent SPR responses | significant changes in signal intensity
